Test results: ChEMBL document CHEMBL1201862, “PubChem BioAssay data set” (2004)
Calls of active or inactive are those of the source.

Assays:
Cytochrome P450 2C9 = Cytochrome P450 2C9 (Homo sapiens, UniProt P11712)
Cytochrome P450 3A4 = Cytochrome P450 3A4 (Homo sapiens, UniProt P08684);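 further: CYP3A4 tested as one member of a cytochrome P450 panel screen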
[1] = biological target: T1, Calpain-2 catalytic subunit (Sus scrofa, UniProt P43367); experiment: pig calpain II inhibitor potency, dose response, biochemical, fluorogenic peptide substrate (AID 1420); type: functional
T1 sequence (P43367 whole entry): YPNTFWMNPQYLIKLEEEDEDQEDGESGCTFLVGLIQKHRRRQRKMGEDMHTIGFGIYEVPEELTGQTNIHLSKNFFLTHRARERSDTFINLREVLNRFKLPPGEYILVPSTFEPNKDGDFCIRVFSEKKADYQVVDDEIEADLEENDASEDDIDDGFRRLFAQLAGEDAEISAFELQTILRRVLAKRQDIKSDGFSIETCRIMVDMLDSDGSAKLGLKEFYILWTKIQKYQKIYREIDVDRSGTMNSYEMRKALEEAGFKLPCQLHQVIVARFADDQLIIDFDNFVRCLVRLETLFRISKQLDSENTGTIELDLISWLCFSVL

Streptococcus = experiment: Group A Streptococcus viability loss, dose response, counter-screen for streptokinase expression inhibitor project, luminescence, BacTiterGlo (AID 1915); type: functional, organism-based;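 further: potency for reduction of bacterial viability or growth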
Streptokinase A = biological target: T2, Streptokinase A (Streptococcus pyogenes serotype M1, UniProt P10520); experiment: S. pyogenes streptokinase expression inhibitors, potency, dose response, plasminogen activation absorbance, OD405 (AID 1914); type: functional, Streptococcus pyogenes M1 GAS;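 further: secreted streptokinase activity via plasminogen activation per viability signal from cell pellet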
T2 sequence (P10520 whole entry): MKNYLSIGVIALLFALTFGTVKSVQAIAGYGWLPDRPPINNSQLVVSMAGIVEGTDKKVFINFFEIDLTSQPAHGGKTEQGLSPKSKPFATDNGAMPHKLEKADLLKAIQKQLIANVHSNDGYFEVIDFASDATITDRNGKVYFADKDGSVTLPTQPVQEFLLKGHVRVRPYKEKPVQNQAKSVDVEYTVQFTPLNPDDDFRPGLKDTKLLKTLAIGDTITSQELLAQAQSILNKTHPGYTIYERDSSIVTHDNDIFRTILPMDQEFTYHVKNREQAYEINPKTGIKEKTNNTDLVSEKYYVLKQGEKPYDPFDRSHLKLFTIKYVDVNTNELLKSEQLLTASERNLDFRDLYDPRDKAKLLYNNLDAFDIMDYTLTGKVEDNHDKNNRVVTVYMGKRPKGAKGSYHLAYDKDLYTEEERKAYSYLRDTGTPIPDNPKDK

[2] = test system: Streptococcus sp. 'group A'; experiment: growth inhibition of control SK(-) GAS strain, dose response, counter-screen for streptokinase expression inhibitor project, luminescence, kanamycin, BacTiterGlo, confirmation (AID 1900); type: functional, organism-based
[3] = THP-1 cell cytotoxicity, dose response, cytotoxicity control for non-replicating M. tuberculosis project (AID 489025); type: functional
cells = type: functional
[4] = biological target: Luciferin 4-monooxygenase (Photinus pyralis, UniProt P08659); experiment: firefly luciferase enzyme inhibitors, dose response, biochemical, luminescence (AID 1891)
Chain of Luciferin 4-monooxygenase (P08659 whole entry): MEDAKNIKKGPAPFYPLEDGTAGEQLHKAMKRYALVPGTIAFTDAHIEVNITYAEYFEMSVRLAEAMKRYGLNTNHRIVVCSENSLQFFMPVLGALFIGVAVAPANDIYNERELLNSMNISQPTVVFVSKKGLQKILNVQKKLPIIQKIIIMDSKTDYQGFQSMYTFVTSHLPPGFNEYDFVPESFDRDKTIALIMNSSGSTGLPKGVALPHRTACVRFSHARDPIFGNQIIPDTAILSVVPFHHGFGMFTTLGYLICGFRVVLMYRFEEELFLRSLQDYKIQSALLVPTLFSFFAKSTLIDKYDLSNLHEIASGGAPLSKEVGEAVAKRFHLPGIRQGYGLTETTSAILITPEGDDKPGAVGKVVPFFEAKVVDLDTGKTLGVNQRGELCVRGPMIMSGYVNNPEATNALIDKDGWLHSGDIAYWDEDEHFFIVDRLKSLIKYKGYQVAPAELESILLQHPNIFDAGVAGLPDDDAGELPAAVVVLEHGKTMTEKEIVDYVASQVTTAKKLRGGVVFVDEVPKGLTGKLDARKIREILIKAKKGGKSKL

[5] = Luminescence Cell-Based Dose Confirmation HTS to Identify Inhibitors of Platelet Dense Granule Release. [Related pubchem assays: 1663 (Primary HTS), 1678 (Summary of Project)]; type: functional
H9c2 = experiment: cells; type: functional, cell-based; conditions: Rattus norvegicus, H9c2, Myocardium;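 further: confirmatory concentration-response retest of ultra-high-throughput screening hits for modulation of myocardial damage; cell death induced by hydrogen peroxide oxidative stress; compound pretreatment for 60 min then peroxide exposure for 2 h; potency is for protecting the cells against peroxide damage rather than for killing them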
Cytochrome P450 1A2 = biological target: T3, Cytochrome P450 1A2 (Homo sapiens, UniProt P05177);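 further: PubChem cytochrome P450 panel assay, CYP1A2 panel member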
T3 sequence (P05177 whole entry): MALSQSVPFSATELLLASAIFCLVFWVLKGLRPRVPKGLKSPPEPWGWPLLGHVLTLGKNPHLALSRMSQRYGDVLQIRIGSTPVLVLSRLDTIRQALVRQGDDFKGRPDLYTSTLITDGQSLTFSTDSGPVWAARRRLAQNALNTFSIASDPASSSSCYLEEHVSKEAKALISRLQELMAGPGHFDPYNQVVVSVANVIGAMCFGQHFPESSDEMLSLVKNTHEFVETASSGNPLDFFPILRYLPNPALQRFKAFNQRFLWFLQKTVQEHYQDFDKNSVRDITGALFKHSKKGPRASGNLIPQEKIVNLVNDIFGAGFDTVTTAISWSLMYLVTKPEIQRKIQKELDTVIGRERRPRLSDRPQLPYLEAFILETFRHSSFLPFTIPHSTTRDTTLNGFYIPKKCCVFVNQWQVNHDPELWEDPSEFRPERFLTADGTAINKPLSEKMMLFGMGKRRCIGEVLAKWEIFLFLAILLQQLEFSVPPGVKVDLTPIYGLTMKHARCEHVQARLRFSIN

Cytochrome P450 2C19 = Cytochrome P450 2C19 (Homo sapiens, UniProt P33261); experiment: Cytochrome panel assay with activity outcomes. Panel member name: p450-cyp2c19 Compounds with AC50 equal or less than 10 uM are considered active; type: functional; conditions: read-out: AC50
Chain of Cytochrome P450 2C19 (P33261 whole entry, the tested form may be a part): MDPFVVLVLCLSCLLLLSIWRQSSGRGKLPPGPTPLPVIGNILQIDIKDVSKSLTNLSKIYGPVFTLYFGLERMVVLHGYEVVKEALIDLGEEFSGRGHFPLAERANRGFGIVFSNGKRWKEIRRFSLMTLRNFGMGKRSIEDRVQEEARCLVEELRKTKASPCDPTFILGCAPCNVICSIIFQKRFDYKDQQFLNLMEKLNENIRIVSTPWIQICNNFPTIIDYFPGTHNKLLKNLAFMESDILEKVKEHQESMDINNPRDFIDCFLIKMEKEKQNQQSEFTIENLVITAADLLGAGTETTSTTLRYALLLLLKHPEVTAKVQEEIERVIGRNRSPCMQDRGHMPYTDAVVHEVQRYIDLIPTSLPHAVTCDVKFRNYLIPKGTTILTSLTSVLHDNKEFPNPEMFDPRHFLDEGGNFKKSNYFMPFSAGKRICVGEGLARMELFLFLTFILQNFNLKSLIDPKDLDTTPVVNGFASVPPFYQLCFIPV

[6] = biological target: T4, Carboxy-terminal domain RNA polymerase II polypeptide A small phosphatase 1 (Homo sapiens, UniProt Q9GZU7); experiment: inhibitors of CTDSP1, concentration-response testing, biochemical assay, absorbance-based, actives from ultra-high-throughput screening (AID 540297); type: functional
T4 sequence (Q9GZU7 whole entry): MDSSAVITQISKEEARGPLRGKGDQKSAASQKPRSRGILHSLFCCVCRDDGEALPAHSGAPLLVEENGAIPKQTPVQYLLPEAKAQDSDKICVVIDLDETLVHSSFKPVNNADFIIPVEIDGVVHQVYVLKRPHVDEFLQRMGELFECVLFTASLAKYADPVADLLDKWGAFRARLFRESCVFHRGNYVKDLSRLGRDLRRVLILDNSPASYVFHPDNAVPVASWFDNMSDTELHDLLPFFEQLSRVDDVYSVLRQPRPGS

Cytochrome P450 2D6 = Cytochrome P450 2D6 (Homo sapiens, UniProt P10635);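 further: CYP2D6 member of a cytochrome P450 panel assay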
Chain of Cytochrome P450 2D6 (P10635 whole entry): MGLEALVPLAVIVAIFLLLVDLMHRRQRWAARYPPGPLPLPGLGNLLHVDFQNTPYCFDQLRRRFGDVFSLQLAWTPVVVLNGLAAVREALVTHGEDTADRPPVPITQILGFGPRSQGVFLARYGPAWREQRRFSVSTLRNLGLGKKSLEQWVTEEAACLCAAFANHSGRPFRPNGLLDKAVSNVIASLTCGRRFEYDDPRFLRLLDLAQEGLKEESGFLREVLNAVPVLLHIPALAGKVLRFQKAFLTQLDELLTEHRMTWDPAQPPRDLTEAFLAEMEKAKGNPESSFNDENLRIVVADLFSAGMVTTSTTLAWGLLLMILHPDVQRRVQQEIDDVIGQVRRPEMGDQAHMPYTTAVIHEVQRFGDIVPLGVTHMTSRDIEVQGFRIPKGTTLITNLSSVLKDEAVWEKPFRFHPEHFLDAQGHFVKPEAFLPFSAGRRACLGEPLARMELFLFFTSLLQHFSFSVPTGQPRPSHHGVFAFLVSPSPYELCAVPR

Protein skinhead-1 = biological target: T5, Protein skinhead-1 (Caenorhabditis elegans, UniProt P34707); type: functional
T5 sequence (P34707 whole entry): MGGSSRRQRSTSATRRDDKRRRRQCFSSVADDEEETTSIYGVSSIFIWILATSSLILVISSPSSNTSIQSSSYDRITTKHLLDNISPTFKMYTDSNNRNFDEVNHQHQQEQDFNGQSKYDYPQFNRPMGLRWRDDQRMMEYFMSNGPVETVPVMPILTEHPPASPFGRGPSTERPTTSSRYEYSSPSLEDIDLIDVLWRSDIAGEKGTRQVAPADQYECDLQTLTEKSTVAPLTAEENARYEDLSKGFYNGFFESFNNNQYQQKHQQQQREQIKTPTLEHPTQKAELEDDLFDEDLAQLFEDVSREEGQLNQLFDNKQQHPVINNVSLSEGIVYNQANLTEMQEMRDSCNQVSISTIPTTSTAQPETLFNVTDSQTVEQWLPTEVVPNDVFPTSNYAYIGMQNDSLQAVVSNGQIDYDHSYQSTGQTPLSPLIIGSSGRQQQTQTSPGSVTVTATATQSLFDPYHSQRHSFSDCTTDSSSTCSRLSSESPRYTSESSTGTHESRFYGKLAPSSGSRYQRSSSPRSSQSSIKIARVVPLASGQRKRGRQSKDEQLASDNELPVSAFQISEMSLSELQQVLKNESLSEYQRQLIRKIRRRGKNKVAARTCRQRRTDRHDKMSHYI

Chain of Cytochrome P450 2C9 (P11712 whole entry): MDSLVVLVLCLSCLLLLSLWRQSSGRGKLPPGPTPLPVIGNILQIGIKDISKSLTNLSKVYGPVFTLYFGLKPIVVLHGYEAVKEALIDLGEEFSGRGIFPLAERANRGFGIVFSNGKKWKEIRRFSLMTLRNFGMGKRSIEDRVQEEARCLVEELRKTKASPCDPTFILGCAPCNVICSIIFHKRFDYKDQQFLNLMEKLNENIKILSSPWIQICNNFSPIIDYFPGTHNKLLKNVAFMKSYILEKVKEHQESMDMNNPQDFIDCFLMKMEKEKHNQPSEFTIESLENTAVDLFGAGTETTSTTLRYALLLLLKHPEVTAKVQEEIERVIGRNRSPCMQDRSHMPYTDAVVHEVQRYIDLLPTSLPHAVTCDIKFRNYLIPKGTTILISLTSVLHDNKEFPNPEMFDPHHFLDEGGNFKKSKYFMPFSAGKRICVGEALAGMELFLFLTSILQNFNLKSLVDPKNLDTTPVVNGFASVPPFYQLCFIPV
Chain of Cytochrome P450 3A4 (P08684 whole entry): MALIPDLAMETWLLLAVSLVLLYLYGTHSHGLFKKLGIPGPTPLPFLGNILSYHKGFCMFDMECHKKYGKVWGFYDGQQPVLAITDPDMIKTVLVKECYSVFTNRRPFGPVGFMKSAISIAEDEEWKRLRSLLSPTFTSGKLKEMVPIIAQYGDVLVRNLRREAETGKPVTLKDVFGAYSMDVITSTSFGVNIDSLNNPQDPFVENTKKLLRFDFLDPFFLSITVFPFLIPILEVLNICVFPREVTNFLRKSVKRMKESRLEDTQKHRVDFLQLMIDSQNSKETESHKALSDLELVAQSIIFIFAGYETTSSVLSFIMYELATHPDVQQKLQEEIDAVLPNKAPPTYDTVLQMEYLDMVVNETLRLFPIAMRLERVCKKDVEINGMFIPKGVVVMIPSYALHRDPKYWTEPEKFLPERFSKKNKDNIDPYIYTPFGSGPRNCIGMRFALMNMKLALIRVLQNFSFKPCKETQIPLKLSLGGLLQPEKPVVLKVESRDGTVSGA

Cc1cc(C)n(C(=O)c2cc3ccccc3c(=O)o2)n1
AC50 (Cytochrome P450 2C9): inconclusive

Cc1cccc(CNc2ccnc(-c3ccccc3CN(C)C)n2)c1
AC50 (Cytochrome P450 2C9): inconclusive | AC50 (Cytochrome P450 3A4): 3.98 µM (inconclusive)

CCOC(=O)c1cnc(-n2nc(C)cc2C)nc1Nc1ccc(OC)cc1
IC50 [1]: < 0.4 µM (not active) | EC50 (Streptococcus): > 150 µM (not active) | EC50 (Streptokinase A): > 150 µM (not active) | EC50 [2]: 6.33 µM (active)

C/C(=N\NC(=O)COc1ccc(C)cc1Br)c1cc([N+](=O)[O-])cs1
CC50 [3]: > 40 µM (active) | IC50 (cells): 34.1 µM (active)

COn1c(=O)c(=O)n(O)c2ccccc21
EC50 [4]: > 112 µM (not active) | EC50 [5]: > 112 µM (not active)

CCc1cccc2c(C=C(C#N)C#N)cn(CC(=O)N3CCCC3)c12
AC50 (Cytochrome P450 2C9): inconclusive

COC(=O)c1cc(Cl)c(NC(=O)/C=C/c2ccc(OC)c(OC)c2)cc1OC
IC50 (H9c2): 22.1 µM (active)

O=C(CNC(=O)c1cccs1)NCC(=O)OCc1ccc(Cl)cc1Cl
AC50 (Cytochrome P450 1A2): 10 µM (inconclusive) | AC50 (Cytochrome P450 2C9): inconclusive

COc1ccccc1OP(=O)(Nc1cccnc1)Oc1ccccc1OC
IC50 (H9c2): > 79 µM (inactive)

CN1CCCN(S(=O)(=O)c2ccc3c(c2)OCCO3)CC1
AC50 (Cytochrome P450 2C19): 25.1 µM (inconclusive) | AC50 (Cytochrome P450 2C9): inconclusive

Cc1ccc(C(=O)O)cc1-c1ccc(C=C2C(=O)c3ccccc3C2=O)o1
IC50 [6]: 13.7 µM (active)

Cc1ccc(S(=O)(=O)N2CCN(C(=O)COC(=O)CCOc3ccccc3C)CC2)c(C)c1
IC50 [6]: 10.7 µM (active)

CCCCNC(=O)Nc1ccc(Br)cn1
EC50 [4]: > 112 µM (not active) | EC50 [5]: > 112 µM (not active)

CC(C)C1OC(NC(=O)Nc2ccc(Cl)c(Cl)c2)=NC1=O (stereo unspecified)
EC50 (Streptococcus): 28.7 µM (active) | EC50 (Streptokinase A): > 150 µM (not active) | CC50 [3]: > 40 µM (active) | IC50 (cells): 18.9 µM (active) | EC50 [2]: 2.51 µM (active)

Cc1ccc(NC(=O)CN(C)C(=O)c2cc(-c3ccco3)nc3ccccc23)cc1
IC50 [6]: 3.88 µM (active)

CC1(C(=O)Nc2cccc(OC(F)(F)F)c2)Cc2c(-c3ccc(C(N)=O)cc3)ccnc2O1 (stereo unspecified)
IC50 (H9c2): > 79 µM (inactive)

CCn1c(CNC(=O)COc2ccc(C(C)C)cc2)nnc1SCC(=O)Nc1cc(F)ccc1C
AC50 (Cytochrome P450 2D6): 22.4 µM (inconclusive) | IC50 [6]: 16.7 µM (active)

CC(=O)Nc1ccc(N/C=C2\C(=O)NC(=O)N(Cc3ccco3)C2=O)cc1
IC50 [6]: 9.73 µM (active)

Cc1cc2ccccn2c1C(=O)c1ccc(N/N=C/c2ccc(C(=O)O)cc2)c([N+](=O)[O-])c1
IC50 [6]: 1.02 µM (active)

CCCCNC(=O)Cc1ccc(C)cc1
CC50 [3]: > 40 µM (active)

COc1ccc(OC)c([N+](=O)[O-])c1C(N)=O
IC50 [6]: 3.49 µM (active)

Cc1cccc(OCc2nc(C#N)c(NCc3ccc4c(c3)OCO4)o2)c1
IC50 [1]: 6.8 µM (not active)

O=C(Nc1ccccc1Cl)c1ccccc1Cl
AC50 (Cytochrome P450 2C9): inconclusive

O=C(COC(=O)c1ccc(Cl)c(S(=O)(=O)N2CCCCC2)c1)NCc1ccco1
IC50 [6]: 13.8 µM (active)

CN1/C(=C\C(=O)CSc2nnc(NCc3ccccc3)s2)C(C)(C)c2ccccc21
IC50 [1]: 4.01 µM (not active) | IC50 (Protein skinhead-1): > 100 µM (inactive)

O=C(Nc1cc(=O)c2ccccc2o1)N1CCCCC1
IC50 (H9c2): 22.8 µM (active)

Cc1cc(CNC(=O)COC(=O)Cn2[nH]c(=O)c3ccccc3c2=O)cc(C)c1O
IC50 (H9c2): > 79 µM (inactive)

COCC(C)n1c(C)cc(C(=O)COC(=O)c2c(NC(C)=O)sc(C)c2C)c1C (stereo unspecified)
IC50 [6]: 9.88 µM (active)

Cc1ccc(NC(=O)c2cccc(N(C)C)c2)cc1NC(=O)c1ccc(O)cc1
AC50 (Cytochrome P450 2C9): inconclusive

Cc1nn(-c2ccccc2)c(Cl)c1C(=O)NNC(=O)c1ccccc1O
IC50 (H9c2): 13 µM (active)

Cc1cc2ncn(-c3ncnc4sc5c(c34)CCC(C)C5)c2cc1C (stereo unspecified)
IC50 [1]: 19.2 µM (not active)

N#Cc1ccc(OCC(=O)Nc2nc(-c3ccccn3)cs2)cc1
IC50 (H9c2): > 79 µM (inactive)

CCCn1c(C2CC(=O)N(c3cc(OC)ccc3OC)C2)nc2ccccc21 (stereo unspecified)
EC50 [4]: > 112 µM (not active) | EC50 [5]: > 112 µM (not active)

c1ccc(Oc2ccc(-c3ccnc4ncnn34)cc2)cc1
IC50 [1]: 11.5 µM (active)

CC(=O)c1ccc(-c2cnc3c(NC=O)cc(-c4cccc(NS(C)(=O)=O)c4)cn23)cc1
IC50 (H9c2): > 79 µM (inactive)
